# Test results from ChEMBL document CHEMBL1201862, “PubChem BioAssay data set” (2004).
#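 Exposure lasted 48 hours, with cells grown in 96-well plates and compounds tested at five concentrations. The concentration for 50% growth inhibition is given as GI50.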 The source made the active and inactive calls. Rule as the data show it: active = GI50 up to about 1.1 µM and inactive = higher.
# Columns and labels:
# Experiment in all cases: NCI anticancer screen, dose series, 48 h
# NCI-H460 = test system: NCI-H460
# EKVX = test system: EKVX
# SNB-19 = test system: SNB-19
# COLO 205 = test system: COLO 205
# UO-31 = test system: UO-31
# OVCAR-5 = test system: OVCAR-5
# A549 = test system: A549
# SW-620 = test system: SW-620
# LOX IMVI = test system: LOX IMVI
# NCI-H23 = test system: NCI-H23
# RPMI-8226 = test system: RPMI-8226
# XF498 = test system: XF498
# TK-10 = test system: TK-10
# NCI-H522 = test system: NCI-H522
# LXFL 529 = test system: LXFL 529
# DMS-273 = test system: DMS-273
# SK-MEL-2 = test system: SK-MEL-2
# HCT-116 = test system: HCT-116
# ACHN = test system: ACHN
# SK-MEL-28 = test system: SK-MEL-28
# HOP-92 = test system: HOP-92
# A498 = test system: A498
# IGROV-1 = test system: IGROV-1
# KM12 = test system: KM12
# 786-0 = test system: 786-0
# DMS-114 = test system: DMS-114
# OVCAR-3 = test system: OVCAR-3
# SF-268 = test system: SF-268
# MOLT-4 = test system: MOLT-4
# SK-MEL-5 = test system: SK-MEL-5
# HOP-62 = test system: HOP-62
# SNB-78 = test system: SNB-78
# M14 = test system: M14
# M19-MEL = test system: M19-MEL
# U-251 = test system: U-251
# OVCAR-4 = test system: OVCAR-4
# CCRF-CEM = test system: CCRF-CEM
# HCT-15 = test system: HCT-15
# UACC-257 = test system: UACC-257
# UACC-62 = test system: UACC-62
# SN12C = test system: SN12C
# OVCAR-8 = test system: OVCAR-8
# HL-60 = test system: HL-60
# SK-OV-3 = test system: SK-OV-3
# K562 = test system: K562
# SF-539 = test system: SF-539
# RXF 393 = test system: RXF 393
# SF-295 = test system: SF-295
# Malme-3M = test system: Malme-3M
# CAKI-1 = test system: CAKI-1
# SNB-75 = test system: SNB-75
compound,measurement,setting,value
CC(=O)N/N=C1\CC(C)(C)C2CCC1C2 (stereo unspecified),GI50,NCI-H460,> 100 µM (inactive)
same,GI50,EKVX,> 100 µM (inactive)
same,GI50,SNB-19,> 100 µM (inactive)
same,GI50,COLO 205,> 100 µM (inactive)
same,GI50,UO-31,> 100 µM (inactive)
same,GI50,OVCAR-5,> 100 µM (inactive)
same,GI50,A549,> 100 µM (inactive)
same,GI50,SW-620,> 100 µM (inactive)
same,GI50,LOX IMVI,> 100 µM (inactive)
same,GI50,NCI-H23,> 100 µM (inactive)
same,GI50,RPMI-8226,> 100 µM (inactive)
same,GI50,XF498,> 100 µM (inactive)
same,GI50,TK-10,> 100 µM (inactive)
same,GI50,NCI-H522,> 100 µM (inactive)
same,GI50,LXFL 529,> 100 µM (inactive)
same,GI50,DMS-273,> 100 µM (inactive)
same,GI50,SK-MEL-2,> 100 µM (inactive)
same,GI50,HCT-116,> 100 µM (inactive)
same,GI50,ACHN,> 100 µM (inactive)
same,GI50,SK-MEL-28,> 100 µM (inactive)
same,GI50,HOP-92,> 100 µM (inactive)
same,GI50,A498,> 100 µM (inactive)
same,GI50,IGROV-1,> 100 µM (inactive)
same,GI50,KM12,> 100 µM (inactive)
same,GI50,786-0,> 100 µM (inactive)
same,GI50,DMS-114,> 100 µM (inactive)
same,GI50,OVCAR-3,> 100 µM (inactive)
same,GI50,SF-268,> 100 µM (inactive)
same,GI50,MOLT-4,> 100 µM (inactive)
same,GI50,SK-MEL-5,> 100 µM (inactive)
same,GI50,HOP-62,> 100 µM (inactive)
same,GI50,SNB-78,> 100 µM (inactive)
same,GI50,M14,> 100 µM (inactive)
same,GI50,M19-MEL,> 100 µM (inactive)
same,GI50,U-251,> 100 µM (inactive)
same,GI50,OVCAR-4,> 100 µM (inactive)
same,GI50,CCRF-CEM,> 100 µM (inactive)
same,GI50,HCT-15,> 100 µM
same,GI50,UACC-257,> 100 µM (inactive)
same,GI50,UACC-62,> 100 µM (inactive)
same,GI50,SN12C,> 100 µM (inactive)
same,GI50,OVCAR-8,> 100 µM (inactive)
same,GI50,HL-60,> 100 µM (inactive)
same,GI50,SK-OV-3,> 100 µM (inactive)
same,GI50,K562,> 100 µM (inactive)
same,GI50,SF-539,> 100 µM (inactive)
same,GI50,RXF 393,> 100 µM (inactive)
same,GI50,SF-295,> 100 µM (inactive)
same,GI50,Malme-3M,> 100 µM (inactive)
same,GI50,CAKI-1,> 100 µM (inactive)
same,GI50,SNB-75,> 100 µM (inactive)
